According to US20030165853A1, “Antisense imaging of gene expression of the brain in vivo” (The Regents of the University of California Office of …, priority 2000, published 2003):

Tests used:
[1] = mouse, in vivo, iv
Description: (§1) Adult male BALB/c mice were divided into 5 groups of 3 mice each for the pharmacokinetic study. The mice were anesthetized with an intraperitoneal injection of ketamine (100 mg/kg) and xylazine (2 mg/kg). The injection solution contained 5 μCi of [^125I]-HD-PNA with or without conjugation to 2 μg of 8D3-SA in 0.01 M PBS/pH 7.4, and a total volume of 50 μl was administered via the jugular vein of each mouse. Groups of 3 mice each were sacrificed at 0.25, 2, 5, 15, and 60 min after the isotope injection and arterial blood was sampled from the aorta. After spinning the blood samples, the collected supernatant (serum) was counted for [^125I]-radioactivity using a γ-counter (Beckman Instruments, Inc., Fullerton, Calif.). An aliquot of serum was precipitated with cold 10% TCA, and the fraction of total serum radioactivity that was TCA precipitated was determined. The brain and peripheral organs (liver, kidney, heart, lung, and spleen) were removed from each mouse at 60 min after the isotope administration and total [^125I]-radioactivity in the organ was measured.
Pharmacokinetic parameters were determined by fitting the serum TCA-precipitable radioactivity data to a biexponential equation with a weighting factor of [1/A(t)]^2 using a derivative-free nonlinear regression analysis (PARBMDP, Biomedical Computer P-Series, developed at UCLA Health Science Computing Facilities).
where A(t)=% injected dose (ID)/ml serum at a given time (t).

[2] = mouse, in vivo
Description: as §1
The organ permeability-surface area (PS) product of either the unconjugated [^125I]-HD-PNA, or the [^125I]-HD-PNA conjugated to 8D3/SA, was calculated as follows: [formula] […]
The brain delivery of the compound was expressed as percentage of injected dose (ID)/g brain, and was calculated as follows: […]

human HD exon 1 = assay: Translation arrest (combined in vitro transcription/translation of HD exon 1); type: biochemical; conditions: 5-50 μM antisense agent, [3H]-leucine incorporation
Description: The hybridization of the antisense HD-PNA to the HD transcript was determined using a combination of transcription and translation that mimics in vivo conditions as previously described (Boado et al. (2000) J. Pharmacol. Exp. Ther., 295: 239-243). The cDNA containing the human HD exon 1 was sublconed into the Bluescript KS+plasmid, between either T3 or T7 RNA polymerase promoters, and this plasmid is designated clone 839, as described previously (Id). Transcription/translation of human HD exon 1 clone 839 was performed with 0.2 μg clone 839 plasmid DNA in the presence of T3 RNA polymerase, 5 μCi [^3H]-leucine, and 50% v/v rabbit reticulocyte lysate using the T3-TNT translation system (Promega, Madison, Wis.), as described previously (Id). Dose response studies with newly synthesized PNAs were performed and compared with a positive control antisense phosphodiester-ODN, designated ODN-III, as described (Id). Samples were incubated for 30 min at 30 ° C., and incorporation of [^3H]-leucine into HD exon 1 protein was analyzed by trichloroacetic acid (TCA) precipitation, and data expressed as percent of control, which lacked any added PNA or ODN. The HD exon 1 insert is 10% of the total plasmid, or about […] per 12.5 μL reaction. Since the TNT produces 10-30 RNA copies per plasmid, the final concentration of the HD RNA in the TNT reaction is approximately 1 μM. […]

HD mRNA = assay: HD RNase protection assay; type: binding, human; conditions: RNase T1/A digestion, PAGE autoradiography
Description: The sense RNA was synthesized with T3 RNA polymerase following linearization of the plasmid with EcoRI. The transcribed RNA was radiolabeled with [^32Pα]ATP to a specific activity of 0.22 μCi/pmol, as previously described (Boado and Pardridge (1994) Bioconj. Chem., 6: 406-410). For the RNAse protection assay, 0.6 pmol of biotinylated HD-PNA or biotinylated luciferase-PNA, with or without conjugation to 6.4 pmol of MAb-SA, was added to 10^5 CPM of [^32P]-labeled sense HD RNA (0.2 pmol) in 3 μl buffer (80 mM NaCl, 7 mM phosphate buffer, pH=7.5, 0.1% BSA), and annealed for 30 minutes at 42° C. Then 20 units RNAse Ti and 2.5 μg RNAse A were added to the samples in 17 μl of RNAse digestion buffer (0.3 M NaCl, 10 mM TRIS pH=7.5, 4 mM EDTA, 0.02% tRNA, 0.02% BSA) and incubated for 30 min at 37° C. RNA fragments were analyzed by 7 M urea/20% polyacrylamide gel electrophoresis following by autoradiography as described by Pardridge et al. (1995) Proc. Natl. Acad. Sci., USA, 92:5592-5596. Labeled RNA and PNAs were heat denatured for 2 minutes at 95° C. and then incubated on ice for 2 minutes immediately before the experiment or conjugation to MAb-SA.

[^125I]-PNA: biotinylated 16-mer PNA complementary to nucleotides −1 to +15 of human HD exon 1, Tyr-Lys, amidated carboxyl terminus; radioiodinated (CTTCCATTTTACCAAC; all peptide nucleic acid (PNA); biotinylated, Tyr-Lys added, amidated C-terminus, radioiodinated, positions not given here)
A1 [1]: 32 ± 2 % ID/ml | A2 [1]: 6.3 ± 0.7 % ID/ml | AUC (60 min) [1]: 308 ± 36 % ID · min/ml | AUC (∞) [1]: 399 ± 49 % ID · min/ml | K1 [1]: 0.37 ± 0.04 min⁻¹ | K2 [1]: 0.0206 ± 0.0014 min⁻¹ | VSS [1]: 0.374 ± 0.042 L/kg | t½^1 [1]: 1.9 ± 0.2 min | t½^2 [1]: 34 ± 3 min | BBB PS product [2]: < 0.3 µL/min/g | inhibition of cell free translation of HD exon 1 protein (human HD exon 1): inhibits the cell free translation | hybridization to HD mRNA (RNase protected fragment) (HD mRNA): specifically hybridizes to the target mRNA
